Tests used:
[1] = Test [III]: left ventricular end diastolic pressure (LVEDP) in anesthetized dogs; type: in vivo; details: anesthetized mongrel dogs, 20 μg/kg i.v.
Procedure: (§1) Mongrel dogs were anesthetized by intravenous administration of 30 mg/kg of pentobarbital, and examined under artifical respiration for the following items.
(1) Left ventricular end diastolic pressure (LVEDP)
Measured by advancing a catheter transducer to the left ventricle.
(§2) Dose and Method of Administration:
(§3) Each of the compounds shown in Tables 2 to 4 was dissolved in 0.1 N hydrochloric acid, and intravenously administered in a dose of 20 μg/kg.

[2] = Test [I]: blood pressure in pentobarbital-anesthetized dogs, i.v.; type: in vivo; parameters: key to duration of hypotensive action (mark (*): especially longlasting): +: a reduction of less than 20%; ++: a reduction of 20 to 50%; +++: a reduction of more than 50%; (*): The hypotensive action is especially longlasting; details: anesthetized adult dogs, 20 μg/kg i.v.; for inhibition in vivo at 0.02 mg/kg: Canis lupus familiaris, iv, read-out: Reduction in blood pressure
Procedure: (§4) Adult dogs were anesthetized by intravenous administration of 30 mg/kg of pentobarbital, and examined under artificial respiration for the action of the compound of this invention on blood pressure and heart rate.
A catheter was inserted into the femoral artery, and connected to a pressure transducer for measurement of the blood pressure.
as §2
(§5) The test drug was dissolved in 0.1 N hydrochloric acid, and administered intravenously in a dose of 20 μg/kg.
(§6) The numbered compounds in the following tables correspond to the compounds obtained in the correspondingly numbered Examples given hereinbelow.

[3] = Test [I]: heart rate in pentobarbital-anesthetized dogs, i.v.; type: in vivo; details: Canis lupus familiaris, iv; anesthetized adult dogs, 20 μg/kg i.v.; read-out: Reduction in heart rate
Procedure: as §4
Measured by pulse pressure changes.
as §2, §5, §6

[4] = Test [III]: coronary blood flow in anesthetized dogs; type: in vivo; details: anesthetized mongrel dogs, 20 μg/kg i.v.
Procedure: as §1
Measured by setting an electro magnetic flow meter probe in the left circumflex branch.
as §2, §3

[5] = tested on: isolated atrial muscle of a guinea pig; assay: Test [II]: antagonistic action against isoproterenol on isolated atrial muscle (β-blocking action); details: 10^-9 to 4×10^-4 mole, control drug propranolol hydrochloride
Procedure: The isolated atrial muscle of a guinea pig was used, and its contractile force and heart rate were recorded. Thus, the antagonistic action of the test drug against isoproterenol was examined. The drug was used in a concentration of 10^-9 to 4×10^-4 mole. As a control drug, propranolol hydrochloride was used.

[6] = Test [III]: common carotid blood flow in anesthetized dogs; type: in vivo; details: anesthetized mongrel dogs, 20 μg/kg i.v.
Procedure: as §1
(3) Common carotid blood flow
Measured by setting an electromagnetic flow probe at the common carotid artery.
as §2, §3

Compound | Decrease rate (%) in LVEDP [1] | inhibition in vivo at 0.02 mg/kg [2] [%] | inhibition in vivo at 0.02 mg/kg [3] [%] | Increase rate (%) in coronary flow [4] | antagonistic action against isoproterenol, compared with propranolol hydrochloride [5] | also measured
CC(C)NCC(O)COc1cccc(OCCO[N+](=O)[O-])c1 (stereo not shown) [Compound 1, 1-iso-Propylamino-3-[3-(2-nitratoethoxy)phenoxy]-2-propanol] | .dwnarw..dwnarw..dwnarw. (a decrease of more than 40%) | – | – | – | – | –
CC(C)NCC(O)COc1ccccc1OCCO[N+](=O)[O-] (stereo not shown) [Compound 2, 1-iso-Propylamino-3-[2-(2-nitrotoethoxy)phenoxy]-2-propanol] | – | 20 to 50 | 20 to 50 | .uparw..uparw. (an increase of more than 30%) | – | –
COc1ccc(OCC(O)CNC(C)C)cc1OCCO[N+](=O)[O-] (stereo not shown) [Compound 3, 1-iso-Propylamino-3-[[4-methoxy-3-(2-nitratoethoxy)]phenoxy]-2-propanol] | – | – | – | – | same degree of action as the control drug | –
COc1ccc(C(O)CNC(C)CCc2ccccc2)cc1OCCO[N+](=O)[O-] (stereo not shown) [Compound 4, 1-[4-methoxy-3-(2-nitratoethoxy)phenyl]-2-(1-methyl-3-phenylpropyl)aminoethanol] | – | – | – | – | same degree of action as the control drug | –
CC(C)NCC(O)COc1ccc(OCCO[N+](=O)[O-])cc1 (stereo not shown) [Compound 6, 1-iso-Propylamino-3-[4-(2-nitratoethoxy)phenoxy]-2-propanol] | .dwnarw..dwnarw. (a decrease of 20 to 40%) | > 50 | > 50 | .uparw..uparw. (an increase of more than 30%) | – | duration of hypotensive action (mark (*): especially longlasting) [2]: (*); Increase rate (%) in flow in the common carotid artery [6]: .uparw..uparw. (an increase of more than 30%)
CC(C)NCC(O)COc1ccc(OCCCO[N+](=O)[O-])cc1 (stereo not shown) [Compound 7, 1-iso-Propylamino-3-[4-(3-nitratopropoxy)phenoxy]-2-propanol] | .dwnarw..dwnarw..dwnarw. (a decrease of more than 40%) | 20 to 50 | > 50 | .uparw..uparw. (an increase of more than 30%) | – | Increase rate (%) in flow in the common carotid artery [6]: .uparw..uparw. (an increase of more than 30%)
CC(C)NCC(O)COc1ccccc1OCCCO[N+](=O)[O-] (stereo not shown) [Compound 8, 1-iso-Propylamino-3-[2-(3-nitratopropoxy)phenoxy]-2-propanol] | – | – | – | – | same degree of action as the control drug | –
COc1ccc(OCCO[N+](=O)[O-])cc1OCC(O)CNC(C)C (stereo not shown) [Compound 13, 1-iso-Propylamino-3-[2-methoxy-5-(2-nitratoethoxy)phenoxy]-2-propanol] | – | – | – | – | same degree of action as the control drug | –
CC(CCc1ccccc1)NCC(O)c1ccccc1OCCO[N+](=O)[O-] (stereo not shown) [Compound 14, 1-[2-(2-Nitratoethoxy)phenyl]-2-(1-methyl-3-phenylpropyl)aminoethanol] | – | – | – | – | same degree of action as the control drug | –
CC(C)NCC(O)COc1cccc(OCCO[N+](=O)[O-])n1 (stereo not shown) [Compound 15, 1-iso-Propylamino-3-[6-(2-nitratoethoxy)-2-pyridyloxy]-2-propanol] | – | – | – | – | same degree of action as the control drug | –
COc1cc(OCCO[N+](=O)[O-])ccc1OCC(O)CNC(C)C (stereo not shown) [Compound 17, 1-iso-Propylamino-3-[2-methoxy-4-(2-nitratoethoxy)phenoxy]-2-propanol] | – | – | – | – | same degree of action as the control drug | –
C=CCOc1cc(OCCO[N+](=O)[O-])ccc1OCC(O)CNC(C)C (stereo not shown) [Compound 23, 1-iso-Propylamino-3-[2-allyloxy-4-(2-nitratoethoxy)phenoxy]-2-propanol] | .dwnarw..dwnarw. (a decrease of 20 to 40%) | 20 to 50 | > 50 | – | – | –
CCC(CC)NCC(O)COc1cccc(OCCCO[N+](=O)[O-])c1 (stereo not shown) [Compound 26, 1-(1-Ethylpropyl)amino-3-[3-(3-nitratopropoxy)phenoxy]-2-propanol] | – | – | – | .uparw. (an increase of 30% or less) | – | Increase rate (%) in flow in the common carotid artery [6]: .uparw. (an increase of 30% or less)
CC(C)NCC(O)COc1ccccc1OCCCCCCO[N+](=O)[O-] (stereo not shown) [Compound 32, 1-iso-Propylamino-3-[2-(6-nitratohexyloxy)phenoxy]-2-propanol] | – | – | – | .uparw. (an increase of 30% or less) | – | –
C=CCOc1cc(OCCO[N+](=O)[O-])c(Cl)cc1OCC(O)CNC(C)C (stereo not shown) [Compound 33, 1-iso-Propylamino-3-[2-allyloxy-5-chloro-4-(2-nitratoethoxy)phenoxy]-2-propanol] | .dwnarw. (a decrease of less than 20%) | 20 to 50 | 20 to 50 | .uparw. (an increase of 30% or less) | – | duration of hypotensive action (mark (*): especially longlasting) [2]: (*); Increase rate (%) in flow in the common carotid artery [6]: .uparw. (an increase of 30% or less)
CC(C)NCC(O)COc1ccc(OCCO[N+](=O)[O-])c(Cl)c1 (stereo not shown) [Compound 34, 1-iso-Propylamino-3-[3-chloro-4-(2-nitratoethoxy)phenoxy]-2-propanol] | – | – | – | .uparw. (an increase of 30% or less) | – | Increase rate (%) in flow in the common carotid artery [6]: .uparw. (an increase of 30% or less)
CC(C)NCC(O)COc1ccc(OCCO[N+](=O)[O-])cc1OCCO[N+](=O)[O-] (stereo not shown) [Compound 50, 1-iso-Propylamino-3-[2,4-di-(2-nitratoethoxy)phenoxy]-2-propanol] | .dwnarw..dwnarw. (a decrease of 20 to 40%) | > 50 | > 50 | – | – | –
CC(C)NCC(O)COc1ccc(OCCO[N+](=O)[O-])c(C(N)=O)c1 (stereo not shown) [Compound 55, 1-iso-Propylamino-3-[3-carbamoyl-4-(2-nitratoethoxy)phenoxy]-2-propanol] | – | 20 to 50 | > 50 | – | – | –
CC(C)NCC(O)COc1ccc(CCCO[N+](=O)[O-])cc1 (stereo not shown) [Compound 61, 1-iso-Propylamino-3-[4-(3-nitratopropyl)phenoxy]-2-propanol] | – | > 50 | > 50 | – | – | Increase rate (%) in flow in the common carotid artery [6]: .uparw. (an increase of 30% or less)
CC(C)NCC(O)COc1ccc(CCCCO[N+](=O)[O-])cc1 (stereo not shown) [Compound 62, 1-iso-Propylamino-3-[4-(4-nitratobutyl)phenoxy]-2-propanol] | .dwnarw. (a decrease of less than 20%) | > 50 | 20 to 50 | – | – | –
CC(C)NCC(O)COc1c(OCCO[N+](=O)[O-])cccc1OCCO[N+](=O)[O-] (stereo not shown) [Compound 63, 1-iso-Propylamino-3-[2,6-di(2-nitratoethoxy)phenoxy]-2-propanol] | – | > 50 | > 50 | – | – | –
